Entries after “also recorded” stand apart in the source; their conditions may differ. Where two headings read alike, the source gives them in different places.
Assays:
Format in all cases: cell-based
[1] = target: T1, Smo2 sites (Mus musculus, UniProt P56726); assay: Inhibition of C3H10T1/2 differentiation (alkaline phosphatase activity) induced by compound 1 or compound 6; conditions: for selectivity between Smo1 and Smo2 sites (in words): Smo1 stimulated by SAG, Smo2 stimulated by compound 1; for C3H10T1/2 cell differentiation IC50 Smo1/IC50 Smo2: ratio of mean IC50 values, Smo1 stimulated by SAG 0.1 μM, Smo2 by compound 1 1 μM
T1 construct: host or cells: C3H10T1/2
T1 sequence (P56726 33-793): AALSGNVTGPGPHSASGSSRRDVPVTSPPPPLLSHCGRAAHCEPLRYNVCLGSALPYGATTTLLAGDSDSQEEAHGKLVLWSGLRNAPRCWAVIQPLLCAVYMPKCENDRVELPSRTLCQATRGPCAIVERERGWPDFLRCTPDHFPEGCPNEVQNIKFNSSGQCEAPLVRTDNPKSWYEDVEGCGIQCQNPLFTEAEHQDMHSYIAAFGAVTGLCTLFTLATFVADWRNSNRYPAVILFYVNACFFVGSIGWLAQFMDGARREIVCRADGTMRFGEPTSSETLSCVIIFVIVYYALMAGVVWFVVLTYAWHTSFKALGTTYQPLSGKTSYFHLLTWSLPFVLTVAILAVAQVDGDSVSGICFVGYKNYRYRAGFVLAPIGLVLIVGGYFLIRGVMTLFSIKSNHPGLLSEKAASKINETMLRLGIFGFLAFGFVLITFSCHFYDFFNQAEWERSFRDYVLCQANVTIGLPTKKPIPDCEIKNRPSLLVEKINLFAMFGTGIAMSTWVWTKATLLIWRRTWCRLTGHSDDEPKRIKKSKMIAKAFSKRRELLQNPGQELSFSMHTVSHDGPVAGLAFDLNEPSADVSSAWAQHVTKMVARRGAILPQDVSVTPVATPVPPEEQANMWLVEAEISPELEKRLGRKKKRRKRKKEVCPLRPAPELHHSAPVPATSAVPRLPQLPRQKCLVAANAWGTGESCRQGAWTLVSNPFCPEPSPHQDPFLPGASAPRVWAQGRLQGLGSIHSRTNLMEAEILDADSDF
Procedure: (§1) The C3H10T1/2 cells were seeded onto 96-well plates at a density of 5×10^3 cells per well, 24 hours before the addition of the test compounds at a concentration ranging from 10 nM to 10 μM in DMEM culture medium supplemented with 10% of fetal calf serum. The tests were carried out in quadruplicate. The plates were then incubated for 5-6 days at a temperature of 37° C. under an atmosphere of 5% CO2. The cells were then washed in cold phosphate buffer (phosphate buffered saline: PBS) and then lysed by sonication at 4° C. in 50 μl of a solution containing 0.9% of NaCl and 0.2% of Triton X-100.
(§2) The alkaline phosphatase in the resulting lysates was then measured according to the method described by Pepinsky et al. (Pepinsky et al. 1998). After the addition of […] of reaction buffer (200 mM Tris-HCL; pH 10.5; 0.4 M of 2-amino-2-methylpropanol and 8 mM of MgCl2) and of 50 μl of substrate (4 mM of disodium p-nitrophenyl phosphate), the lysates were incubated at 37° C. for 30-60 min and then the optical density was read at a wavelength of 415 nm.

[2] = target: T2, Smo1 sites (Mus musculus, UniProt P56726); assay: Inhibition of C3H10T1/2 differentiation (alkaline phosphatase activity) induced by SAG; conditions: for IC50: alkaline phosphatase activity induced by SAG (0.1 μM)
T2 construct: host or cells: C3H10T1/2
T2 sequence (P56726 33-793): as above
Procedure: as §1, §2

[3] = system: C3H10T1/2 mesenchymal stem cells; assay: Modulation by IWR1 of differentiation stimulated by compound 1 or SAG
Procedure: For the experiments in the presence of forskolin, compound 1 (1 μM) and SAG (0.3 μM) were used to stimulate differentiation in the presence of increasing concentrations (1, 3 and 10 μM) of forskolin (Sigma). The IWR1 compound (Sigma), for its part, was used at 10 μM on an activation by compound 1 at 1 μM or SAG at 0.1 μM. The alkaline phosphatase activity was measured as previously.

[4] = system: C3H10T1/2 cells; assay: Activation of osteogenic differentiation of C3H10T1/2 cells (alkaline phosphatase activity); conditions: for stimulation of osteogenesis: induction of alkaline phosphatase after 6 days
Procedure: The pluripotent fibroblast cell line C3H10T1/2 (ATCC) was cultured under the conditions recommended by the ATCC. The stimulation of the differentiation of these cells was carried out using increasing concentrations of compounds according to the methods described by Chen et al. and Frank-Kamenetsky et al. (Chen et al. 2002; Frank-Kamenetsky et al. 2002). The activation by the compounds of general formula (I) causes differentiation of the cell line and enables the latter to express alkaline phosphatase. It was thus possible to measure the activity of the compounds via the measurement of alkaline phosphatase activity. By way of comparison, the activity of the SAG compound (Chen et al. 2002), an Smo activator, was tested under the same conditions as those used to test the compounds of general formula (I).
as §1, §2

[5] = alkaline phosphatase activity induced by compound 1 (1 μM), C3H10T1/2 cells, read-out: Smo2 IC50
[6] = alkaline phosphatase activity induced by compound 1 (1 μM), mean ± SEM of 2 to 6 experiments, read-out: IC50 μM, C3H10T1/2, Compound 1
[7] = alkaline phosphatase activity induced by compound 6 (3 μM), mean ± SEM of 2 to 6 experiments, read-out: IC50 μM, C3H10T1/2, Compound 6
[8] = antagonist at 10 μM, induced by compound 1 (1 μM), C3H10T1/2 cells
[9] = C3H 10T1/2, antagonist at 10 μM, induced by compound 1 (1 μM), C3H10T1/2 cells, read-out: Smo2 Inhibition 10 μM
[10] = C3H 10T1/2, antagonist at 10 μM, induced by SAG (0.1 μM), C3H10T1/2 cells, read-out: Smo1 Inhibition 10 μM

## COc1cccc(CN(C(=O)CC(C)(C)C)[C@H]2C[C@@H](C(=O)N3CCNCC3)N(Cc3ccc4c(c3)OCO4)C2)c1 [Cur61414]
[1]
  selectivity between Smo1 and Smo2 sites (in words): much more selective with respect to Smo1 sites than Smo2 sites
  C3H10T1/2 cell differentiation IC50 Smo1/IC50 Smo2: 17
[1]; [5]
  IC50: 5.7 ± 1.6 µM
[1]; [6]
  IC50: 5.7 ± 1.6 µM
[1]; [7]
  IC50: 7 ± 1 µM
[1]; [8]
  Smo2 Inhibition 10 μM: weaker inhibition
[2]; SAG versus compound 1 stimulation
  selectivity for the Smo1 site compared with the Smo2 site: 17 fold

## CC1=C2C[C@H]3[C@@H](CC=C4C[C@@H](O)CC[C@@]43C)[C@@H]2CC[C@]12O[C@@H]1C[C@H](C)CN[C@H]1[C@H]2C [Cyclopamine, cyclopamine]
[1]; C3H 10T1/2, read-out: Smo2 Inhibition 10 μM
  inhibition at 10 µM: 48%
[1]; [8]
  Smo2 Inhibition 10 μM: weaker inhibition
[2]; C3H 10T1/2, read-out: Smo1 Inhibition 10 μM
  inhibition at 10 µM: 98%
[2]; antagonist at 10 μM, induced by SAG (0.1 μM), C3H10T1/2 cells
  Smo1 Inhibition 10 μM: complete inhibition

## O=C(Nc1cccc2cccnc12)c1ccc(N2C(=O)[C@@H]3[C@H](C2=O)[C@@H]2C=C[C@H]3C2)cc1 [IWR1]
[3]; IWR1 10 μM, SAG at 0.1 μM
  effect on the activity of SAG: does not modify; also recorded: does not affect
[3]; IWR1 10 μM, compound 1 at 1 μM
  effect on the activity of compound 1 (in words): inhibits the activity of compound 1
  reduction of the activity of compound 1: 60%
[3]; dose-response curve of compound 1 with IWR1, read-out: IC50 with respect to alkaline phosphatase inhibition
  IC50: 2500 nM

## COc1cc(C(=O)NC(=O)Nc2cccc(NC(=O)c3ccccc3)c2)cc(OC)c1OC [MRT-14]
[1]; [9]
  inhibition at 10 µM: 95%
[1]
  selectivity between Smo1 and Smo2 sites (in words): comparable affinities
  C3H10T1/2 cell differentiation IC50 Smo1/IC50 Smo2: 2.5
[1]; response induced by compound 1, read-out: affinity (IC50) for compound 1
  IC50: 0.32 µM
[1]; response induced by compound 6, read-out: affinity (IC50) for compound 6
  IC50: 0.4 µM
[2]; [10]
  inhibition at 10 µM: 100%
[2]; C3H10T1/2 cells
  IC50: 130 ± 50 nM

## COc1cc(C(=O)NC(=S)Nc2cccc(NC(=O)c3ccc(-c4ccc(F)cc4)cc3)c2)cc(OC)c1OC [MRT-79]
[1]
  selectivity between Smo1 and Smo2 sites (in words): more selective with respect to Smo2 sites than the Smo1 sites
  C3H10T1/2 cell differentiation IC50 Smo1/IC50 Smo2: 0.08

## COc1cc(C(=O)NC(=S)Nc2ccc(C)c(NC(=O)c3ccc(-c4ccccc4)cc3)c2)cc(OC)c1OC [MRT-81]
[1]; [9]
  inhibition at 10 µM: 100%
[1]; [6]
  IC50: 0.06 µM
[1]; [7]
  IC50: 0.06 µM
[1]; compound 1 versus SAG stimulation
  times more selective with respect to Smo2 sites: 1.3 times
[1]
  C3H10T1/2 cell differentiation IC50 Smo1/IC50 Smo2: 0.9
[2]; [10]
  inhibition at 10 µM: 100%
[2]; C3H10T1/2 cells
  IC50: 60 ± 20 nM

## Cc1nn(-c2ccccc2)c(C)c1/C=N/N1CCN(Cc2ccccc2)CC1 [SANT-1]
[1]; [9]
  inhibition at 10 µM: 71%
[1]
  selectivity between Smo1 and Smo2 sites (in words): comparable affinities
  C3H10T1/2 cell differentiation IC50 Smo1/IC50 Smo2: 1.5
[1]; [5]
  IC50: 0.06 ± 0.02 µM
[2]; [10]
  inhibition at 10 µM: 100%
[2]; C3H10T1/2 cells
  IC50: 40 ± 10 nM

## CCCCCCn1c(=O)c(C(=O)Nc2ccc(C(=O)OCCC)cc2)c(O)c2ccccc21 [compound 1, propyl 4-(1-hexyl-4-hydroxy-2-oxo-1,2-dihydroquinoline-3-carboxamido)benzoate]
[4]; dose-response curves produced in parallel
  maximum stimulation compared with SAG: greater than that of the Smo agonist SAG
[4]
  stimulation of osteogenesis: have the capacity to stimulate osteogenesis

## CCCCCCn1c(=O)c(C(=O)Nc2ccc(C(=O)OC(C)(C)C)cc2)c(O)c2ccccc21 [compound 6, tert-butyl 4-(1-hexyl-4-hydroxy-2-oxo-1,2-dihydroquinoline-3-carboxamido)benzoate]
[4]
  stimulation of osteogenesis: have the capacity to stimulate osteogenesis
